Each block holds one compound with its values, some of them ahead of it.
What was measured:
Angiopoietin-1 receptor [1] = target: T1, Angiopoietin-1 receptor (Homo sapiens, UniProt Q02763)
[2] = target: T2, Tyrosine-protein kinase CSK (Homo sapiens, UniProt P41240); test: Inhibition of human Csk tyrosine kinase
Angiopoietin-1 receptor [3] = target: T1, Angiopoietin-1 receptor; test: Inhibition of TIE-2 kinase.
[4] = target: Tyrosine-protein kinase Lyn (Homo sapiens, UniProt P07948); test: Inhibition of human p56 Lyn tyrosine kinase
[5] = target: Tyrosine-protein kinase Lck (Homo sapiens, UniProt P06239); test: Inhibition of human p56 Lck tyrosine kinase (lck64-509)
[6] = target: Tyrosine-protein kinase Fyn (Homo sapiens, UniProt P06241); test: Inhibition of human p55 Fyn tyrosine kinase.
[7] = target: Tyrosine-protein kinase Blk (Homo sapiens, UniProt P51451); test: Inhibition of human B lymphoid tyrosine kinase
[8] = target: Proto-oncogene tyrosine-protein kinase Src (Homo sapiens, UniProt P12931)
Description: Inhibition of Src protein tyrosine kinase

[9] = Half life period was determined after intravenous administration at a dose 5 mg/kg to male Sprague-Dawley rats; format: ADME, organism-based; design: dose 5 mg/kg, route intravenous; details: rat, in vivo
[10] = Maximum time constant was determined after oral administration at a dose 10 mg/kg to male Sprague-Dawley rats; format: ADME, organism-based; design: dose 10 mg/kg, route oral; details: rat, in vivo
[11] = Clearance was determined after intravenous administration at a dose 5 mg/kg to male Sprague-Dawley rats; format: ADME, organism-based; design: dose 5 mg/kg, route intravenous; details: rat, in vivo
[12] = Bioavailability was determined after intravenous administration at a dose 5 mg/kg to male Sprague-Dawley rats; format: ADME, organism-based; details: rat, in vivo
[13] = Volume of distribution was determined after intravenous administration at a dose 5 mg/kg to male Sprague-Dawley rats; format: ADME, organism-based; design: dose 5 mg/kg, route intravenous; details: rat, in vivo, read-out: Vz
[14] = Area under curve was determined after oral administration at a dose 10 mg/kg to male Sprague-Dawley rats; format: ADME, organism-based; design: dose 10 mg/kg, route oral; details: rat, in vivo
Homo sapiens = organism: Homo sapiens; test: Inhibition of IL-2 production in whole blood assay; format: functional
Jurkat = test: Inhibition of IL-2 production in anti-CD3 stimulated Jurkat cells; format: functional, cell-based; details: Homo sapiens
Mus musculus [15] = test: Effective dose was evaluated in vivo for the inhibition of IFN-gamma production for 3 days peroral administration of the compound; format: functional; details: po, 72 h
[16] = target: Platelet-derived growth factor receptor (Homo sapiens, UniProt P09619+P16234); test: Inhibition of Platelet-derived growth factor receptor (Inactive at 1 mM ATP); format: protein-complex assay
[17] = target: T2, Tyrosine-protein kinase CSK; test: Inhibition of human Tyrosine-protein kinase CSK
[18] = Maximum plasma concentration was determined after oral administration at a dose 10 mg/kg to male Sprague-Dawley rats; format: ADME, organism-based; design: dose 10 mg/kg, route oral; details: rat
[19] = Compound was evaluated for the pharmacokinetic parameter, maximum time constant; format: ADME, organism-based; details: mouse, in vivo
[20] = Compound was evaluated for the pharmacokinetic parameter, Terminal half life period; format: ADME, organism-based; details: mouse, in vivo
[21] = Compound was evaluated for the pharmacokinetic parameter, area under curve; format: ADME, organism-based; details: mouse, in vivo
[22] = Compound was evaluated for the pharmacokinetic parameter, maximum plasma concentration; format: ADME, organism-based; details: mouse
Mus musculus [23] = test: Compound was evaluated for inhibition of interleukin - 2 (IL-2) production in anti -CD3 mAb stimulation in mice after intraperitoneal administration; format: functional; details: ip
Mus musculus [24] = test: Compound was evaluated for inhibition of interleukin - 2 (IL-2) production in anti -CD3 mAb stimulation in mice after oral administration; format: functional
[25] = target: Vascular endothelial growth factor receptor 2 (Homo sapiens, UniProt P35968); test: Inhibition of Vascular endothelial growth factor receptor 2
Angiopoietin-1 receptor [26] = target: T1, Angiopoietin-1 receptor; test: Inhibition of TIE-2 kinase
Mus musculus [27] = test: Compound was evaluated for the inhibition of TCR stimulated (anti-CD3 mAb) IL-2 production in mice following oral administration; format: functional

T1 sequence (Q02763 whole entry): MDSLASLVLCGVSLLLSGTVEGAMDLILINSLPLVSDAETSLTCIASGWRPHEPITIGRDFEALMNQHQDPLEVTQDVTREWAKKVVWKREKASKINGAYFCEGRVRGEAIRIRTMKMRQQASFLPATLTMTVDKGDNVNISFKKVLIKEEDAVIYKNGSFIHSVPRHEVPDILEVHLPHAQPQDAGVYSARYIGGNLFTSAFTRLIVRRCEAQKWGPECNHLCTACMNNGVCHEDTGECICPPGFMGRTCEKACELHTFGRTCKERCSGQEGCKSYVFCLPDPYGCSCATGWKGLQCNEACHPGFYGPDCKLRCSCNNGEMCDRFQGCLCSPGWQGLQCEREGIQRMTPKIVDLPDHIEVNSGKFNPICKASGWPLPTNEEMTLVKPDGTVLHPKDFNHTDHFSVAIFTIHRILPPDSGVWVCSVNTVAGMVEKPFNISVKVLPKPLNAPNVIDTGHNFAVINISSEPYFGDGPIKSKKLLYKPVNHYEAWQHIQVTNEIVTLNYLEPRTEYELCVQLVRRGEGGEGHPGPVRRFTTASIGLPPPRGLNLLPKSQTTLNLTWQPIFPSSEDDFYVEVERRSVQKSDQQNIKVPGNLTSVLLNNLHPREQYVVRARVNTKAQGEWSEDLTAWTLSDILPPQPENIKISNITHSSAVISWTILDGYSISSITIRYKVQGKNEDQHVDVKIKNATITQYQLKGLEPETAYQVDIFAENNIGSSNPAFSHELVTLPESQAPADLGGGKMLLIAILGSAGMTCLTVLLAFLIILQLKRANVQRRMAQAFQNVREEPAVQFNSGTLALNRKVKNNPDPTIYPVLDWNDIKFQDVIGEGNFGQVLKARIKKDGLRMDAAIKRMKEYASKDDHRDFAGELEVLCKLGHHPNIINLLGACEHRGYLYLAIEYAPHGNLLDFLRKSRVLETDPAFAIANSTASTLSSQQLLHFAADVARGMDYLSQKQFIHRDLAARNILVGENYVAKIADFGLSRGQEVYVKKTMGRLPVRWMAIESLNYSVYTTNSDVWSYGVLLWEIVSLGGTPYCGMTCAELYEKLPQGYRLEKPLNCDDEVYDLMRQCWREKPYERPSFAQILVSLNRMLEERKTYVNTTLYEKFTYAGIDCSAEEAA
Tyrosine-protein kinase Lck, sequence (P06239 whole entry): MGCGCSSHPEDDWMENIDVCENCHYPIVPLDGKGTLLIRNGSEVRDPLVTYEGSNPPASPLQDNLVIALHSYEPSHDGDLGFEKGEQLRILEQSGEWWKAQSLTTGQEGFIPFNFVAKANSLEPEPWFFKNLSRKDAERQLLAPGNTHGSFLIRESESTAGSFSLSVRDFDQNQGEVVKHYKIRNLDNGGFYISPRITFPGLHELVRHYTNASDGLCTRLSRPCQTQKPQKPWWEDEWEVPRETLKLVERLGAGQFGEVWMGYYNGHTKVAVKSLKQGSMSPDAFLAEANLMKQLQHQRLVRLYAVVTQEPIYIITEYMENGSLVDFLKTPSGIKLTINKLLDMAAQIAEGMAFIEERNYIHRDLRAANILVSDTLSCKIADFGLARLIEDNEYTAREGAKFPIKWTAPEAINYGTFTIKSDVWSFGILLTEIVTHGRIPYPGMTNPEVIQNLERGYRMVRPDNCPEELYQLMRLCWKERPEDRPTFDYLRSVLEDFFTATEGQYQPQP
Proto-oncogene tyrosine-protein kinase Src, sequence (P12931 2-536 limits assumed): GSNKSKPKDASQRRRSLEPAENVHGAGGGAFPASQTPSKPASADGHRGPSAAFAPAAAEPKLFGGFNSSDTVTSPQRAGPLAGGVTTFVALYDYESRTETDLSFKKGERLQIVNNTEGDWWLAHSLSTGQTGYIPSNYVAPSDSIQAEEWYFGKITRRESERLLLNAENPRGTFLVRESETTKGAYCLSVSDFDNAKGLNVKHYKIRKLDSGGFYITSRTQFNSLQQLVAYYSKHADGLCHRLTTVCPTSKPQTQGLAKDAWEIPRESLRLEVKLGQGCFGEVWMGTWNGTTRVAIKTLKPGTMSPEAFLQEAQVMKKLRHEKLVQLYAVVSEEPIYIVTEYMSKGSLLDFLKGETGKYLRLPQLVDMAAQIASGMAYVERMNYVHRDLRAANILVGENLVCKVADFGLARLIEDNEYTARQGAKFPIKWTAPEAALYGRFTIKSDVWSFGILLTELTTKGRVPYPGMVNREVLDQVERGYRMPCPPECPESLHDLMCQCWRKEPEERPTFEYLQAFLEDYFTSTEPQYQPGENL
Tyrosine-protein kinase Blk, sequence (P51451 whole entry): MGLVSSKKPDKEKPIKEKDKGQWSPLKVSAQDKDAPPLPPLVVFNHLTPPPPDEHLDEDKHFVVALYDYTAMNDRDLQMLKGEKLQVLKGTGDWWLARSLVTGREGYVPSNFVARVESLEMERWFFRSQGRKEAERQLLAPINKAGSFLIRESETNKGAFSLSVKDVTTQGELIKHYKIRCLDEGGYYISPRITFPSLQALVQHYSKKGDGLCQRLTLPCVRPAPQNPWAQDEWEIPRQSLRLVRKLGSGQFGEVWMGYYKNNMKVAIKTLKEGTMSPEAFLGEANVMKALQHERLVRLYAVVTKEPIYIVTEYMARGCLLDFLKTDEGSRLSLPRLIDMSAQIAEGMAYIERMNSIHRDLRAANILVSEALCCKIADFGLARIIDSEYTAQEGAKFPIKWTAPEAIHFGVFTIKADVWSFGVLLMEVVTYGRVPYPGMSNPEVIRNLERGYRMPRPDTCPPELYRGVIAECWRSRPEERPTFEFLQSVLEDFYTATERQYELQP
Tyrosine-protein kinase Fyn, sequence (P06241 whole entry): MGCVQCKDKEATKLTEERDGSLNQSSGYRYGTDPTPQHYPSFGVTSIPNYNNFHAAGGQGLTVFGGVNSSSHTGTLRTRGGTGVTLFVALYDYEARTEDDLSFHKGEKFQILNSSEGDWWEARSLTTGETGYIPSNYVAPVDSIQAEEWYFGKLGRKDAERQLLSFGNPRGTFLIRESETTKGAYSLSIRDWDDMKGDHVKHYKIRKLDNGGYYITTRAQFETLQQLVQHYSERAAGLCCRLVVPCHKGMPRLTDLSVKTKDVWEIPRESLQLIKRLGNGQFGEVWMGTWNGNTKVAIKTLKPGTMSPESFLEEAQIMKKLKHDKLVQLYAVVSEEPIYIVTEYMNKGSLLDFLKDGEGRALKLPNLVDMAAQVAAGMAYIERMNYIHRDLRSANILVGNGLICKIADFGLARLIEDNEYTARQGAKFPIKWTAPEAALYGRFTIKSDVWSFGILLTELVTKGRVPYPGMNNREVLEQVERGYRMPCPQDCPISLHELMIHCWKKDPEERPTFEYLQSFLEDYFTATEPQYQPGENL
Tyrosine-protein kinase Lyn, sequence (P07948 whole entry): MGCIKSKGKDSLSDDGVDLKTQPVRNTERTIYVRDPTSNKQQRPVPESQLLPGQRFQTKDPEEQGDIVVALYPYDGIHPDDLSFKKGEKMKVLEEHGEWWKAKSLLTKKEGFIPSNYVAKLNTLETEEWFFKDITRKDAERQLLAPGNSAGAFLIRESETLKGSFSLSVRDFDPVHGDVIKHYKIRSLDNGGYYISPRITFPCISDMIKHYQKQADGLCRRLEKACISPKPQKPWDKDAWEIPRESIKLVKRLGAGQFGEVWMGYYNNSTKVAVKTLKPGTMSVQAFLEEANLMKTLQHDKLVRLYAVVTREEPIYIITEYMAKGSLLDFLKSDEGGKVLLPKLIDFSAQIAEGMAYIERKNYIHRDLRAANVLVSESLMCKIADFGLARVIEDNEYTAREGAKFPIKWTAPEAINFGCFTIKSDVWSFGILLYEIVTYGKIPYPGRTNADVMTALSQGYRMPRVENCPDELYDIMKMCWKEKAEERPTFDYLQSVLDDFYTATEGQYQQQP
Vascular endothelial growth factor receptor 2, sequence (P35968 whole entry): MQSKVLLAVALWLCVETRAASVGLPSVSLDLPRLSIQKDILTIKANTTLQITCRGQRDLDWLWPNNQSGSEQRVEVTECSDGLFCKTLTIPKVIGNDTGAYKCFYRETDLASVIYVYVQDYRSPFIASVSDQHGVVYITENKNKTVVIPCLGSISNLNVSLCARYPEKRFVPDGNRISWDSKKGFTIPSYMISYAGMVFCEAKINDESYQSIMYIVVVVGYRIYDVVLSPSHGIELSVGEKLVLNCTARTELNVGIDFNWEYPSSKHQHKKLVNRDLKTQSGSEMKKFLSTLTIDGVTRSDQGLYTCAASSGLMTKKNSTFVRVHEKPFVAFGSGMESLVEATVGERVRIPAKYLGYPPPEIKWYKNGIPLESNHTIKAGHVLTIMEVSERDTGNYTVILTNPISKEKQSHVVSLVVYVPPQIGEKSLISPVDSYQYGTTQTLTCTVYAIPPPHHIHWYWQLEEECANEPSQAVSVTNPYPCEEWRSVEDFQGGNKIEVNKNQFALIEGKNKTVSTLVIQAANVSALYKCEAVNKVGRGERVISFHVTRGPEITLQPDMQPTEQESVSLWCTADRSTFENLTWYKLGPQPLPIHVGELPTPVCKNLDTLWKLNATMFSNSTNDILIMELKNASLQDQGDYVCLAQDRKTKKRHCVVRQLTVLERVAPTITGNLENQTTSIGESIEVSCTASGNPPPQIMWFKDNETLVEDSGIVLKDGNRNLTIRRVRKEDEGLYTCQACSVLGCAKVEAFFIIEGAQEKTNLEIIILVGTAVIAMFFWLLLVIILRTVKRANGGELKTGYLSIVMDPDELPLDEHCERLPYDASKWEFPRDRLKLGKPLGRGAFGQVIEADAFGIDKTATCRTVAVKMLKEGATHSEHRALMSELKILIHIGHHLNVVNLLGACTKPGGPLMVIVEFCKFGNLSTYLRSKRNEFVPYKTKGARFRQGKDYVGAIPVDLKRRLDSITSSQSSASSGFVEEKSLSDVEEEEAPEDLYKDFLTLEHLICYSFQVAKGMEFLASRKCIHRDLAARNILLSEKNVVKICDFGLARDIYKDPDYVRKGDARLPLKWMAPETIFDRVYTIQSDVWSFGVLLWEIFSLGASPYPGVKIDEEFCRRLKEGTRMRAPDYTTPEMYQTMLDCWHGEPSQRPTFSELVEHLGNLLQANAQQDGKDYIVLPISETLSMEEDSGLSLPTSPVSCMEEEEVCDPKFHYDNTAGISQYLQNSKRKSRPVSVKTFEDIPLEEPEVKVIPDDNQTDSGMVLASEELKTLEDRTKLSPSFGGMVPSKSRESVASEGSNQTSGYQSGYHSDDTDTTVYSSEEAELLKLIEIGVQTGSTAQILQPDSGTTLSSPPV

Structure (SMILES): NCCn1cc(-c2ccc(Oc3ccccc3)cc2)c2c(N)ncnc21
- IC50 (Angiopoietin-1 receptor [1]): > 50000 nM

Structure (SMILES): CN1CCN([C@H]2CC[C@@H](n3cc(-c4ccc(Oc5ccccc5)cc4)c4c(N)ncnc43)CC2)CC1.O=C(O)/C=C\C(=O)O
- ED50 (Mus musculus [27]): 2.5 mg/kg

More lines, main results first:

- IC50 [2]: 4270 nM
- IC50 (Angiopoietin-1 receptor [3]): 5850 nM
- IC50 [4]: 430 nM
- IC50 [5]: 240 nM
- IC50 [6]: 2030 nM
- IC50 [7]: 370 nM
- IC50 [8]: 1190 nM
Structure (SMILES): CN1CCN([C@H]2CC[C@H](n3cc(-c4ccc(Oc5ccccc5)cc4)c4c(N)ncnc43)CC2)CC1

- half-life [9]: 14.3 h
- Tmax [10]: 4 h
- clearance [11]: 88.3 mL/min/kg
- bioavailability [12]: 54%
- Vd [13]: 140 L/kg
- AUC [14]: 661 ng·h/mL
- IC50 (Homo sapiens): 70 nM
- IC50 (Jurkat): 25 nM
- IC50 [16]: > 20000 nM
- IC50 [17]: 41 nM
- IC50 [4]: 29 nM
- IC50 [5]: 15 nM
- IC50 [6]: 59 nM
- Cmax [18]: 113 nM
- IC50 [7]: 46 nM
- IC50 [8]: 42 nM
- IC50 (Angiopoietin-1 receptor [1]): 250 nM
Structure (SMILES): CN1CCN([C@H]2CC[C@@H](n3cc(-c4ccc(Oc5ccccc5)cc4)c4c(N)ncnc43)CC2)CC1
- ED50 (Mus musculus [15]): 2.2 mg/kg

- Tmax [19]: 0.25 h
- half-life [20]: 7.7 h
- AUC [21]: 34.3 ng·h/mL
- Cmax [22]: 28 nM
- IC50 [25]: 4440 nM
- IC50 [5]: 100 nM
- IC50 (Angiopoietin-1 receptor [26]): 9070 nM
- IC50 [8]: 560 nM
Structure (SMILES): Nc1ncnc2c1c(-c1ccc(Oc3ccccc3)cc1)cn2C1CCCC1
- ED50 (Mus musculus [23]): 4 mg/kg
- ED50 (Mus musculus [24]): 25 mg/kg

From ChEMBL document CHEMBL1135158, “Pyrrolo[2,3-d]pyrimidines containing diverse N-7 substituents as potent inhibitors of Lck” (Bioorg Med Chem Lett, 2002)
